Assay results from the supplement of paper PMC10307832.

Columns and labels:
Test in all cases: relative viability (nuclei count vs DMSO), 5 days (fraction); higher = more cells survive
[1] = compound: O=C(CCCCCCNC(=O)c1cnc(N(c2ccccc2)c2ccccc2)nc1)NO [Ricolinostat] + Nc1nc2[nH]cc(CCc3ccc(C(=O)N[C@@H](CCC(=O)O)C(=O)O)cc3)c2c(=O)[nH]1 [Pemetrexed] (partner 0.2 µM)
In short: (§1)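 For relative viability, nuclei counts in treated wells were divided by those in vehicle wells. Lung cancer cell lines had been pin-tool dosed in 1536-well plates the day after seeding and cultured for 5 days, then fixed and stained in one step (final 0.05% Triton X-100, 1% formaldehyde, 1 ug/ml Hoechst) and imaged at 4×. Doses were one drug alone or a fixed anchor-drug dose plus five library-drug doses (not always all listed) in √10 steps, and values are duplicate-plate medians.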

[2] = compound: CC1=CN2C(=O)C=C(N=C2C(=C1)C(C)NC3=CC=CC=C3)N4CCOCC4 [TGX 221] + CC(=O)Nc1cccc(-n2c(=O)n(C3CC3)c(=O)c3c(Nc4ccc(I)cc4F)n(C)c(=O)c(C)c32)c1 [Trametinib] (partner 0.02 µM)
In short: as §1

[3] = compound: C1=CC=C(C(=C1)C2=CC=C(C=C2)C3=CSC4=C3C(=C(C(=O)N4)C#N)O)O + CC(C)C[C@H](NC(=O)[C@H](Cc1ccccc1)NC(=O)c1cnccn1)B(O)O [Bortezomib] (partner 0.002 µM)
In short: as §1

[4] = compound: O=C(CCCCCCNC(=O)c1cnc(N(c2ccccc2)c2ccccc2)nc1)NO [Ricolinostat] + CS(=O)(=O)N1CCN(Cc2cc3nc(-c4cccc5[nH]ncc45)nc(N4CCOCC4)c3s2)CC1 [Pictilisib] (partner 1 µM)
In short: as §1

[5] = compound: O=C(CCCCCCNC(=O)c1cnc(N(c2ccccc2)c2ccccc2)nc1)NO [Ricolinostat] + NC(=O)Nc1cc(-c2cccc(F)c2)sc1C(=O)N[C@H]1CCCNC1 [AZD7762] (partner 0.2 µM)
In short: as §1

NCI-H1792
relative viability ([1]; first compound 0.253 µM): 0.92 | relative viability ([1]; first compound 0.8 µM): 0.59 | relative viability ([1]; first compound 2.53 µM): 0.415 | relative viability ([2]; first compound 0.08 µM): 0.436 | relative viability ([2]; first compound 0.253 µM): 0.414 | relative viability ([2]; first compound 0.8 µM): 0.366 | relative viability ([2]; first compound 2.53 µM): 0.277 | relative viability ([2]; first compound 8 µM): 0.313 | relative viability ([3]; first compound 0.253 µM): 0.866 | relative viability ([3]; first compound 0.8 µM): 1.1 | relative viability ([3]; first compound 2.53 µM): 1.03 | relative viability ([3]; first compound 8 µM): 0.425 | relative viability ([4]; first compound 0.08 µM): 0.248 | relative viability ([4]; first compound 0.253 µM): 0.281 | relative viability ([4]; first compound 0.8 µM): 0.243 | relative viability ([4]; first compound 2.53 µM): 0.169 | relative viability ([5]; first compound 0.253 µM): 0.716 | relative viability ([5]; first compound 0.8 µM): 0.581 | relative viability ([5]; first compound 2.53 µM): 0.375
